Reference: publication PMC10819746, “Investigating Novel IspE Inhibitors of the MEP Pathway in Mycobacterium” (Microorganisms, 2023)

Molecular target: T1, IspE (4-diphosphocytidyl-2-c-methyl-d-erythritol kinase; Rv1011) (Mycobacterium tuberculosis, UniProt P9WKG7)
T1 sequence (P9WKG7 2-318): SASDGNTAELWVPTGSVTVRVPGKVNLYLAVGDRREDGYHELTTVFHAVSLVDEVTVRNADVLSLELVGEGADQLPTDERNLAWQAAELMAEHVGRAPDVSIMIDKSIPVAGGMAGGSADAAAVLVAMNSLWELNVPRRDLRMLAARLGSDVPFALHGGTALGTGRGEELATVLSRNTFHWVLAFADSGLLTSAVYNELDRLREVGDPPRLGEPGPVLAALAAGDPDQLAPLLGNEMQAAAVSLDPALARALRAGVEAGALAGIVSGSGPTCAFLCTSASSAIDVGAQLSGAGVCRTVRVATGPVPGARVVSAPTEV
Test: ADP Quest HS coupled fluorescent kinase assay (resorufin) with Rv1011, ATP and CDP-ME
Type: biochemical

Question: How did the IC50 turn out when `Cc1ccc([C@H]2c3c([nH]n(-c4ccccc4)c3=O)NC3=C[C@H](C)CC(=O)[C@H]32)cc1` [A1] was run?
Answer: 15.6 µM
